Experimental data reported in patent US20240262804A1, “NITROGEN-CONTAINING HETEROCYCLIC KETONES, PREPARATION METHODS AND MEDICINAL USES THEREOF” (Hansoh Bio LLC, priority 2021, published 2024).

molecular target: bovine cardiac myosin (Bos taurus (Bovine), UniProt Q9BE39); experiment: Myosin inhibitory potency: PK/LDH-coupled ATPase assay on bovine skinned cardiac myofibrils; format: biochemical; conditions: pCa=6.25, 50 μM ATP, 25° C., read-out: myosin inhibition activity IC50
Procedure: The average rates of ATPase inhibition, and the IC50 values are determined by Victor Nivo multimode plate reader (PerkinElmer, USA).
As to the assays background, a biochemical assay couples the ATPase activity of bovine cardiac myosin to an enzymatic coupling system consisting of pyruvate kinase and lactate dehydrogenase (PK/LDH) and monitoring the absorbance decrease of NADH (at 340 nm) as a function of time to measure the inhibitory ability of small molecule agents. In the assay, PK converts ADP (Adenosine diphosphate) to ATP (adenosine triphosphate) by converting PEP (phosphoenolpyruvate) to pyruvate. Pyruvate is then converted to lactate by LDH by converting NADH (nicotinamide adenine dinucleotide) to NAD (oxidized nicotinamide adenine dinucleotide).
In our experiments, bovine skinned cardiac myofibrils were isolated from the frozen bovine left ventricle as myosin's source in the ATPase assay. The calcium concentration that achieves a 50% (pCa50 or pCa=6.25) activation of the myofibril system was chosen as the final condition for assessing the activation activity according to the literature (DOI: 10.1074/jbc.M117.776815). Myofibrils ATPase activity was measured in a buffered solution containing 12 mM PIPES (piperazine-N, N′-bis(2-ethane sulfonic acid) and 2 mM magnesium chloride at pH 6.8 (PM12 buffer). Final assay conditions were 1 mg/mL of bovine cardiac myofibrils, 1:20 of stock PK/LDH (Sigma-Aldrich, Cat No. P0294-5X5ML), 50 μM ATP, 1 mM DTT (dithiothreitol), 0.75 mM NADH, 1.5 mM PEP at pCa50 (pCa=6.25). Compounds were dissolved in DMSO (dimethyl sulfoxide). Serial dilution of compounds was created such that the final desired concentration of compound would be achieved in a volume of 150 μL with a fixed DMSO concentration of 2% (v/v). 75 μL of a solution containing bovine cardiac myofibrils, PK/LDH, and calcium were added to a 96 well plate for a 7 point dose-response. In some circumstances, 10 point-response was used to repeat the ATPase assays on compounds of interest. Compounds were added to the myofibrils solution and incubated for 5 minutes. The enzymatic reaction was started with the addition of 75 μL of a solution containing ATP, PEP, NADH, compounds, and calcium. The ATPase activity was measured by reading absorbance at 340 nm in a PerkinElmer Victor Nivo plate reader at 25° C. in kinetic mode for 15 minutes using clear bottom plates. The slopes of the absorbance changes as a function of time for the first 10 minutes were normalized to slopes on the control wells containing all reagents, including DMSO, but without compounds. This normalized rate was then plotted as a function of small molecule concentration in GraphPad prism 9. The data were fitted to a four-parameter fit, and IC50 was calculated using Graphpad Prism 9.

Sequence of bovine cardiac myosin (Q9BE39 whole entry): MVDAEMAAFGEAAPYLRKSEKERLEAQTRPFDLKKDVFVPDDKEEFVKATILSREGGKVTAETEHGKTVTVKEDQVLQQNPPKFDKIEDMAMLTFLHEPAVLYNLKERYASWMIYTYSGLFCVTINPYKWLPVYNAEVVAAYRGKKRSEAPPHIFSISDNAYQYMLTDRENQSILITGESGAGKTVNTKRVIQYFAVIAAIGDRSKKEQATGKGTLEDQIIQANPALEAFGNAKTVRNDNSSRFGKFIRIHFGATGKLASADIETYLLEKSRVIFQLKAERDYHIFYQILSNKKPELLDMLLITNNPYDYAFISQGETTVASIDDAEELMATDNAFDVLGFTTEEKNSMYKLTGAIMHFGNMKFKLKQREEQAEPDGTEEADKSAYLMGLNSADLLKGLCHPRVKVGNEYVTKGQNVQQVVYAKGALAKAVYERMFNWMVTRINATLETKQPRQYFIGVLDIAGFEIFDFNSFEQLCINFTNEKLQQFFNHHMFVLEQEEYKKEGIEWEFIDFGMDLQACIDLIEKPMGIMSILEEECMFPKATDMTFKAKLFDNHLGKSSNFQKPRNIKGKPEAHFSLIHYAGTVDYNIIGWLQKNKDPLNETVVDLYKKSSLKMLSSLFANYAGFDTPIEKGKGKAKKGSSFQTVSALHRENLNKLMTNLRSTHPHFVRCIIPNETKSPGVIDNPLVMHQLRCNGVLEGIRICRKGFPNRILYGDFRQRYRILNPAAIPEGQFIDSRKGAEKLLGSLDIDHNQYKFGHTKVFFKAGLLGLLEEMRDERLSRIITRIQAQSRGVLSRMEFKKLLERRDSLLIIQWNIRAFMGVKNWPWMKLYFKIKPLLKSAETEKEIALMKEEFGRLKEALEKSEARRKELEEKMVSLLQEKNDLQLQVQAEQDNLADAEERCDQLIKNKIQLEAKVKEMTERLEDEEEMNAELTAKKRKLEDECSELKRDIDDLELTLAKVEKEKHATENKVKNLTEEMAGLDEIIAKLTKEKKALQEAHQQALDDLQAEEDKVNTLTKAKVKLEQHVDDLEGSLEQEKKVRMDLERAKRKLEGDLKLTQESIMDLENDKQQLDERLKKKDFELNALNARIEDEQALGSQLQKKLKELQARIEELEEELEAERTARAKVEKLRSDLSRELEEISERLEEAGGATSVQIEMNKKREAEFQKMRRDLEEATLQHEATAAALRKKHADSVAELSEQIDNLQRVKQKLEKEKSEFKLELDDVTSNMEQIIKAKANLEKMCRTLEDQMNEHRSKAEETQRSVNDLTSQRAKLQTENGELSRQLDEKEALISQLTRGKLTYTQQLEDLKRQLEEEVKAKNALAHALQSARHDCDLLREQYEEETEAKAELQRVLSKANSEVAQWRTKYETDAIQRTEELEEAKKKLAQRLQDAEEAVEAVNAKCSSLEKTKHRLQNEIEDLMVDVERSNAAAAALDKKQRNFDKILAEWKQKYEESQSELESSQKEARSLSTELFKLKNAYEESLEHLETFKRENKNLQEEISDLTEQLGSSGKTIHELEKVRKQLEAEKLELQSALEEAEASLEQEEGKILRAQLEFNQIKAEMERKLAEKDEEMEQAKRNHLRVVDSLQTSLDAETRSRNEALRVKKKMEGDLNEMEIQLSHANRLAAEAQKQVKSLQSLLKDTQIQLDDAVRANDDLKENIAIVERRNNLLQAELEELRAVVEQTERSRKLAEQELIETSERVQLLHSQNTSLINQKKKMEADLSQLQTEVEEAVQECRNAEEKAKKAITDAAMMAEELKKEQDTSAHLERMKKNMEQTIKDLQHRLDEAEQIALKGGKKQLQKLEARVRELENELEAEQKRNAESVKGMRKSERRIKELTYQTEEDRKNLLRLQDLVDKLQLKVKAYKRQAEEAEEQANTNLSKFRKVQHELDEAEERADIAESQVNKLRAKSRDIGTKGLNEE
Sequence of bovine cardiac myosin (P85100 whole entry partner): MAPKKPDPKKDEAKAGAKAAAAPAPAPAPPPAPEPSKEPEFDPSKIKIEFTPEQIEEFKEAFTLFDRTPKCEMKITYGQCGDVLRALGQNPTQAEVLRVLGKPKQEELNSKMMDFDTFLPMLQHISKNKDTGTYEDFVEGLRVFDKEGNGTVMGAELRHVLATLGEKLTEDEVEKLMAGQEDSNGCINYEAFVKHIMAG
Sequence of bovine cardiac myosin (Q3SZE5 whole entry partner): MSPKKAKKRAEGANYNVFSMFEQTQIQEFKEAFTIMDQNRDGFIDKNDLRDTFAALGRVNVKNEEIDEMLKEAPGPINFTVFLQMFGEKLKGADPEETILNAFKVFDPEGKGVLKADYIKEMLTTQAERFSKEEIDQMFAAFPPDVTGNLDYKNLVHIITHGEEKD

Compared with `C[C@H](Nc1nc(=O)n(C2CCOCC2)c(=O)[nH]1)c1cccc(-n2cccn2)c1` [Example 199], `Cc1cn(-c2cccc([C@H](C)Nc3nc(=O)n(C4CCOCC4)c(=O)[nH]3)c2)cn1` [Example 205] is 1.8-fold higher in IC50: 2.1 µM for the first, 3.84 µM for the second. The first is the more potent here.

Going from `C[C@H](Nc1nc(=O)n([C@H](C)C(F)(F)F)c(=O)[nH]1)C1CCCCC1` [Example 15] to `COCCN1CCC(n2c(=O)nc(N[C@@H](C)C3CCCCC3)[nH]c2=O)CC1` [Example 33], the IC50 rises from 2.16 µM to 3.86 µM (1.8-fold). The first is the more potent here.

Compared with `CO[C@H]1COCC[C@@H]1n1c(=O)nc(N[C@@H](C)c2cccc(C)c2)[nH]c1=O` [Example 347], `CO[C@H]1COCC[C@@H]1n1c(=O)nc(N[C@@H](C)c2cc(C)ccc2F)[nH]c1=O` [Example 282] is 2.6-fold lower in IC50: 2.33 µM for the first, 0.9 µM for the second.

Going from `C[C@H](Nc1nc(=O)n(C2CCOCC2)c(=O)[nH]1)c1cccc(-c2cc[nH]n2)c1` [Example 227] to `C[C@H](Nc1nc(=O)n(C2CCOCC2)c(=O)[nH]1)c1cccc(-c2cn[nH]c2)c1` [Example 228], the IC50 rises from 1.67 µM to 4.14 µM (2.5-fold). The first is the more potent here.

Compared with `Cc1cccc([C@H](C)Nc2nc(=O)n([C@@H](C)C(F)(F)F)c(=O)[nH]2)c1` [Example 40], `CC(C)n1c(=O)nc(N[C@@H](C)c2cccc(C(F)(F)F)c2)[nH]c1=O` [Example 322] is 1.8-fold lower in IC50: 2.21 µM for the first, 1.21 µM for the second. The second is the more potent here.

`CC(C)c1ccc([C@H](C)Nc2nc(=O)n(C3CCOCC3)c(=O)[nH]2)cc1` [Example 328] and `CCc1ccc([C@H](C)Nc2nc(=O)n(C3CCOCC3)c(=O)[nH]2)cc1` [Example 186] are within 1.5-fold of each other in IC50: 0.85 µM for the first, 0.74 µM for the second.

First: Cc1c(-c2cccc([C@H](C)Nc3nc(=O)n(C4CCOCC4)c(=O)[nH]3)c2)cnn1C [Example 197]
Second: C[C@H](Nc1nc(=O)n(C2CCOCC2)c(=O)[nH]1)c1cccc(C(C)(C)C#N)c1 [Example 276]
The IC50 of the first is 14-fold higher: 2.04 µM for the first, 0.15 µM for the second.

Going from `CC(=O)N1CC(c2cccc([C@@H](Nc3nc(=O)n(C4CCOCC4)c(=O)[nH]3)C(F)F)c2)C1` [Example 260] to `CC(=O)N1CC(c2cccc([C@H](C)Nc3nc(=O)n(C4CCOCC4)c(=O)[nH]3)c2)C1` [Example 273], the IC50 rises from 0.2 µM to 0.58 µM (2.9-fold).

Going from `C[C@H](Nc1nc(=O)n(C2CCOCC2)c(=O)[nH]1)c1cccc([C@H](O)C(F)(F)F)c1` [Example 291] to `C[C@H](Nc1nc(=O)n(C2CCOCC2)c(=O)[nH]1)c1cccc([C@@H](O)C(F)(F)F)c1` [Example 346], the IC50 rises from 0.85 µM to 2.58 µM (3-fold).

Going from `O=c1nc(N[C@H](c2cccc(Br)c2)C(F)F)[nH]c(=O)n1C1CCOCC1` [Example 270] to `Cc1cccc([C@H](Nc2nc(=O)n(C3CCOCC3)c(=O)[nH]2)C(F)(F)F)c1` [Example 280], the IC50 rises from 0.55 µM to 2.43 µM (4.4-fold).

`C[C@H](Nc1nc(=O)n(C2CCOCC2)c(=O)[nH]1)c1ccc(C#N)cc1` [Example 169] and `C[C@@H](Nc1nc(=O)n(C2CCOCC2)c(=O)[nH]1)c1cccc(C2CC2)c1` [Example 306] are within 1.5-fold of each other in IC50: 1.45 µM for the first, 1.22 µM for the second.

`COC[C@H](Nc1nc(=O)n(C2CCOCC2)c(=O)[nH]1)c1ccc(F)cc1F` [Example 269] and `C[C@H](Nc1nc(=O)n(C2CCOCC2)c(=O)[nH]1)c1c(F)cccc1Cl` [Example 13] are within 1.5-fold of each other in IC50: 1.77 µM for the first, 1.3 µM for the second.

First: CC(C)n1c(=O)nc(N[C@@H](C)c2cccc(C3CCOCC3)c2)[nH]c1=O [Example 295]
Second: CC(C)n1c(=O)nc(N[C@@H](C)c2cccc(F)c2)[nH]c1=O [Example 181]
The IC50 of the first is 1.7-fold lower: 1.36 µM for the first, 2.38 µM for the second.

`CC(O)c1cccc([C@@H](Nc2nc(=O)n(C(C)C)c(=O)[nH]2)C(F)F)c1` (some centres unmarked) [Example 267] and `COC[C@H](Nc1nc(=O)n(C(C)C)c(=O)[nH]1)c1cccc(C)c1` [Example 285] are within 1.5-fold of each other in IC50: 0.41 µM for the first, 0.51 µM for the second.

Compared with `CC(Nc1nc(=O)n(C2CCOCC2)c(=O)[nH]1)c1ccccc1C(F)(F)F` (centres unmarked) [Example 129], `Cc1ccc(F)c([C@H](C)Nc2nc(=O)n([C@@H]3CCOC[C@@H]3F)c(=O)[nH]2)c1` [Example 313] is 6-fold higher in IC50: 0.23 µM for the first, 1.37 µM for the second.

Compared with `C[C@H](Nc1nc(=O)n(C2CCN(C3CC3)CC2)c(=O)[nH]1)C1CCCCC1` [Example 32], `Cc1cccc([C@H](C)Nc2nc(=O)n(CC(F)(F)F)c(=O)[nH]2)c1` [Example 42] is 3-fold higher in IC50: 3.04 µM for the first, 9.1 µM for the second. The first is the more potent here.
